Test results from US20240158446A1, “CYCLIC COMPOUND HAVING SELECTIVE INHIBITORY ACTION ON KRAS OVER HRAS AND NRAS” (CHUGAI SEIYAKU KABUSHIKI KAISHA, priority 2021, published 2024).
*1 amine or outer side, *2 acyl side, *3 side chain or, on linkers, in order; H or OH if unused. Where a SMILES comes first, the peptide text is derived from it. Bridges are numbered along the chain shown (N, C = ends). [ ]: non-standard residue; d: D form. The star is where a group is joined. hPhe(3,5-F2-4-CF3) = N[C@@H](CCc1cc(F)c(C(F)(F)F)c(F)c1)C(=O)O; NPrPhe(4-CF3) = CCCN[C@@H](Cc1ccc(C(F)(F)F)cc1)C(=O)O; NMeAbu(4,4,4-F3) = CN[C@@H](CC(F)(F)F)C(=O)O; X13 = O=C([C@@H](N[*:1])C1CC(F)(F)C1)[*:2]; NMeGly(cPent) = CN[C@H](C(=O)O)C1CCCC1; Ac4c(3,3-F2) = NC1(C(=O)O)CC(F)(F)C1; X8 = C[C@@](N[*:1])(C(=O)[*:2])C1CC1; NMeD = CN[C@@H](CC(=O)O)C(=O)O; NMeL = CN[C@@H](CC(C)C)C(=O)O; αMeV = CC(C)[C@](C)(N)C(=O)O; Iva = CC[C@](C)(N)C(=O)O; Morpholide = C1CN(*)CCO1; Ac5c = NC1(C(=O)O)CCCC1; Aze = O=C(O)[C@@H]1CCN1; Sar = CNCC(=O)O

What was measured:
[1] = target: GDP-bound KRAS wild-type protein (Homo sapiens, UniProt P01116); assay: Binding to KRAS by surface plasmon resonance (SPR), Single Cycle Kinetics; settings: SPR Single Cycle Kinetics, GDP-bound KRAS wild-type protein, 1:1 binding model; read-out: KRAS KD
[2] = target: GDP-bound NRAS wild-type protein (Homo sapiens, UniProt P01111); assay: Binding to NRAS by surface plasmon resonance (SPR), Single Cycle Kinetics; settings: SPR, GDP-bound NRAS wild-type protein vs GDP-bound KRAS wild-type protein
[3] = target: GDP-bound HRAS wild-type protein (Homo sapiens, UniProt P01112); assay: Binding to HRAS by surface plasmon resonance (SPR), Single Cycle Kinetics; settings: SPR, GDP-bound HRAS wild-type protein vs GDP-bound KRAS wild-type protein
GDP-bound HRAS wild-type protein, sequence (P01112 whole entry): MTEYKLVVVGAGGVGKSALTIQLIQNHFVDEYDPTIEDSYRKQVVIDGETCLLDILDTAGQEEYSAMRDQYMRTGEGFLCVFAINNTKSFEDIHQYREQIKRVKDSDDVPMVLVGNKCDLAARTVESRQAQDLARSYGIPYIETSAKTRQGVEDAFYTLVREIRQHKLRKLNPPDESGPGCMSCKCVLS

GDP-bound NRAS wild-type protein, sequence (P01111 whole entry): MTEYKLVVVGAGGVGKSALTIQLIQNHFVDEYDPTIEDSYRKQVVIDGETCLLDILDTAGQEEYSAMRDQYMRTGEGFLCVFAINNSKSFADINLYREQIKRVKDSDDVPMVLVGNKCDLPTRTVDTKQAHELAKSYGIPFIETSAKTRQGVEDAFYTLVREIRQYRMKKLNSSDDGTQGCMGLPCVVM
GDP-bound KRAS wild-type protein, sequence (P01116 whole entry): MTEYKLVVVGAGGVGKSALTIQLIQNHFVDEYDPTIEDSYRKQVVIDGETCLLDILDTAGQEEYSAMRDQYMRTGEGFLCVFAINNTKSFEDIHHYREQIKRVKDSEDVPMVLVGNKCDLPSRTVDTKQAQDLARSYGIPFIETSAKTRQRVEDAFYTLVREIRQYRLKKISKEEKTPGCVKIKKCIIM

SMILES | Kd [1] [pM] | NRAS/KRAS (ratio of KD value with respect to NRAS to KD value with respect to KRAS) [2] | HRAS/KRAS (ratio of KD value with respect to HRAS to KD value with respect to KRAS) [3]
CCCN1C(=O)CN(C)C(=O)[C@@H]2CCN2C(=O)[C@H]([C@@H](C)CC)NC(=O)[C@H](CC(C)C)N(C)C(=O)C[C@@H](C(=O)N2CCOCC2)N(C)C(=O)[C@H](CC(F)(F)F)N(C)C(=O)C2(CCCC2)NC(=O)[C@@H]2CCCN2C(=O)[C@H](CCc2cc(F)c(C(F)(F)F)c(F)c2)NC(=O)CN(C)C(=O)[C@@H]1Cc1ccc(C(F)(F)F)cc1 [PP0784] ([NMeL]I[Aze][Sar][NPrPhe(4-CF3)][Sar][hPhe(3,5-F2-4-CF3)]P[Ac5c][NMeAbu(4,4,4-F3)][NMeD]-Morpholide; lactam N-11) | 17000 | B (a compound having 3 or more and less than 10 is denoted as B) | B (a compound having 3 or more and less than 10 is denoted as B)
CCCN1C(=O)CN(C)C(=O)[C@@H]2CCN2C(=O)[C@H](C2CC(F)(F)C2)NC(=O)[C@H](CC(C)C)N(C)C(=O)C[C@@H](C(=O)N2CCOCC2)N(C)C(=O)[C@H](C2CCCC2)N(C)C(=O)C2(CCCC2)NC(=O)[C@@H]2CCCN2C(=O)[C@H](CCc2cc(F)c(C(F)(F)F)c(F)c2)NC(=O)CN(C)C(=O)[C@@H]1Cc1ccc(C(F)(F)F)cc1 [PP0786] ([NMeL][X13][Aze][Sar][NPrPhe(4-CF3)][Sar][hPhe(3,5-F2-4-CF3)]P[Ac5c][NMeGly(cPent)][NMeD]-Morpholide; lactam N-11) | 600 | B (a compound having 3 or more and less than 10 is denoted as B) | B (a compound having 3 or more and less than 10 is denoted as B)
CCCN1C(=O)[C@@H]2CCN2C(=O)CN(C)C(=O)[C@H](C2CC(F)(F)C2)NC(=O)[C@H](CC(C)C)N(C)C(=O)C[C@@H](C(=O)N2CCOCC2)N(C)C(=O)[C@H](C2CCCC2)N(C)C(=O)C2(CCCC2)NC(=O)[C@@H]2CCCN2C(=O)[C@H](CCc2cc(F)c(C(F)(F)F)c(F)c2)NC(=O)CN(C)C(=O)[C@@H]1Cc1ccc(C(F)(F)F)cc1 [PP0787] ([NMeL][X13][Sar][Aze][NPrPhe(4-CF3)][Sar][hPhe(3,5-F2-4-CF3)]P[Ac5c][NMeGly(cPent)][NMeD]-Morpholide; lactam N-11) | 340 | C (A compound having a KD ratio of 0.1 or more and less than 3 is denoted as C) | B (a compound having 3 or more and less than 10 is denoted as B)
CCCN1C(=O)[C@@H]2CCN2C(=O)CN(C)C(=O)[C@H]([C@@H](C)CC)NC(=O)[C@H](CC(C)C)N(C)C(=O)C[C@@H](C(=O)N2CCOCC2)N(C)C(=O)[C@H](C2CCCC2)N(C)C(=O)[C@](C)(C2CC2)NC(=O)[C@@H]2CCCN2C(=O)[C@H](CCc2cc(F)c(C(F)(F)F)c(F)c2)NC(=O)CN(C)C(=O)[C@@H]1Cc1ccc(C(F)(F)F)cc1 [PP0791] ([NMeL]I[Sar][Aze][NPrPhe(4-CF3)][Sar][hPhe(3,5-F2-4-CF3)]P[X8][NMeGly(cPent)][NMeD]-Morpholide; lactam N-11) | 980 | C (A compound having a KD ratio of 0.1 or more and less than 3 is denoted as C) | B (a compound having 3 or more and less than 10 is denoted as B)

Now from value to molecule, other results behind:

Kd [1] [pM] | SMILES | NRAS/KRAS (ratio of KD value with respect to NRAS to KD value with respect to KRAS) [2] | HRAS/KRAS (ratio of KD value with respect to HRAS to KD value with respect to KRAS) [3]
850 | CCCN1C(=O)CN(C)C(=O)[C@@H]2CCN2C(=O)[C@H]([C@@H](C)CC)NC(=O)[C@H](CC(C)C)N(C)C(=O)C[C@@H](C(=O)N2CCOCC2)N(C)C(=O)[C@H](C2CCCC2)N(C)C(=O)C2(CC(F)(F)C2)NC(=O)[C@@H]2CCCN2C(=O)[C@H](CCc2cc(F)c(C(F)(F)F)c(F)c2)NC(=O)CN(C)C(=O)[C@@H]1Cc1ccc(C(F)(F)F)cc1 [PP0783] ([NMeL]I[Aze][Sar][NPrPhe(4-CF3)][Sar][hPhe(3,5-F2-4-CF3)]P[Ac4c(3,3-F2)][NMeGly(cPent)][NMeD]-Morpholide; lactam N-11) | B (a compound having 3 or more and less than 10 is denoted as B) | B (a compound having 3 or more and less than 10 is denoted as B)
54 | CCCN1C(=O)CN(C)C(=O)CN(C)C(=O)[C@H]([C@@H](C)CC)NC(=O)[C@H](CC(C)C)N(C)C(=O)C[C@@H](C(=O)N(C)C)N(C)C(=O)[C@H](C2CCCC2)N(C)C(=O)C2(CCCC2)NC(=O)[C@@H]2CCCN2C(=O)[C@H](CCc2cc(F)c(C(F)(F)F)c(F)c2)NC(=O)CN(C)C(=O)[C@@H]1Cc1ccc(C(F)(F)F)cc1 [PP0788] ([NMeL]I[Sar][Sar][NPrPhe(4-CF3)][Sar][hPhe(3,5-F2-4-CF3)]P[Ac5c][NMeGly(cPent)][NMeD]-NMe2; lactam N-11) | B (a compound having 3 or more and less than 10 is denoted as B) | C (A compound having a KD ratio of 0.1 or more and less than 3 is denoted as C)
120 | CCCN1C(=O)[C@@H]2CCN2C(=O)CN(C)C(=O)[C@H]([C@@H](C)CC)NC(=O)[C@H](CC(C)C)N(C)C(=O)C[C@@H](C(=O)N2CCOCC2)N(C)C(=O)[C@H](C2CCCC2)N(C)C(=O)C2(CCCC2)NC(=O)[C@@H]2CCCN2C(=O)[C@H](CCc2cc(F)c(C(F)(F)F)c(F)c2)NC(=O)CN(C)C(=O)[C@@H]1Cc1ccc(C(F)(F)F)cc1 [PP0789] ([NMeL]I[Sar][Aze][NPrPhe(4-CF3)][Sar][hPhe(3,5-F2-4-CF3)]P[Ac5c][NMeGly(cPent)][NMeD]-Morpholide; lactam N-11) | C (A compound having a KD ratio of 0.1 or more and less than 3 is denoted as C) | B (a compound having 3 or more and less than 10 is denoted as B)
560 | CCCN1C(=O)[C@@H]2CCN2C(=O)CN(C)C(=O)[C@H]([C@@H](C)CC)NC(=O)[C@H](CC(C)C)N(C)C(=O)C[C@@H](C(=O)N2CCOCC2)N(C)C(=O)[C@H](C2CCCC2)N(C)C(=O)[C@](C)(CC)NC(=O)[C@@H]2CCCN2C(=O)[C@H](CCc2cc(F)c(C(F)(F)F)c(F)c2)NC(=O)CN(C)C(=O)[C@@H]1Cc1ccc(C(F)(F)F)cc1 [PP0790] ([NMeL]I[Sar][Aze][NPrPhe(4-CF3)][Sar][hPhe(3,5-F2-4-CF3)]P[Iva][NMeGly(cPent)][NMeD]-Morpholide; lactam N-11) | C (A compound having a KD ratio of 0.1 or more and less than 3 is denoted as C) | B (a compound having 3 or more and less than 10 is denoted as B)
900 | CCCN1C(=O)[C@@H]2CCN2C(=O)CN(C)C(=O)[C@H]([C@@H](C)CC)NC(=O)[C@H](CC(C)C)N(C)C(=O)C[C@@H](C(=O)N2CCOCC2)N(C)C(=O)[C@H](C2CCCC2)N(C)C(=O)[C@](C)(C(C)C)NC(=O)[C@@H]2CCCN2C(=O)[C@H](CCc2cc(F)c(C(F)(F)F)c(F)c2)NC(=O)CN(C)C(=O)[C@@H]1Cc1ccc(C(F)(F)F)cc1 [PP0792] ([NMeL]I[Sar][Aze][NPrPhe(4-CF3)][Sar][hPhe(3,5-F2-4-CF3)]P[αMeV][NMeGly(cPent)][NMeD]-Morpholide; lactam N-11) | C (A compound having a KD ratio of 0.1 or more and less than 3 is denoted as C) | B (a compound having 3 or more and less than 10 is denoted as B)
